In publication PMC5082792 (PLoS ONE, 2016):

What was measured:
[1] = addition of ETR 200mg bid to DRV/r 600/100mg bid; cited from earlier work
[2] = cited from earlier work
[3] = DRV plasma trough concentration ([DRV]plasma) by UPLC-DAD in HIV-1 infected patients, by CYP3A5 genotype-based expression status; format: in vivo, human
Excerpt: After a clinical assessment and in addition to the samples routinely collected for the clinical follow-up (viral load, CD4 cell count), two more blood samples were drawn immediately before drug intake, with the highest timing precision conceivable given the ambulatory context of the study recruitment. […] In order to obtain a post-intake delay as close as possible to the trough sampling time, each patient was personally contacted by phone a few days before the study visit to ensure not taking the medication prior to blood sampling.
Plasma was then collected and stored at -20°C until the day of quantification.
Genotype and allele frequencies were calculated and deviations from Hardy-Weinberg equilibrium (HWE) were evaluated using exact tests.
The patients were also classified into CYP3A5 expressors (CYP3A5*1 allele carriers) and CYP3A5 non-expressors (CYP3A5*3 homozygous).

[4] = test system: HIV; parameters: method as in PMID 17617270, PMID 17617271; conditions: treatment-experienced patients, with optimized background regimen including DRV/r 600/100 mg BID; cited from earlier work

## CC(C)CN(C[C@@H](O)[C@H](Cc1ccccc1)NC(=O)O[C@H]1CO[C@H]2OCC[C@H]21)S(=O)(=O)c1ccc(N)cc1 [DRV, Darunavir]
[1]
  increase of DRV AUC: 14%
[2]; DRV/r 600/100mg bid with ETR 100mg or 200mg bid, healthy volunteers
  DRV PK parameters (in particular Ctrough and Cmax): unchanged
[3]; CYP3A5 expressors versus non-expressors, DRV with ETR
  decrease of plasma drug concentration by the drug-drug interaction: more than 55%
[3]; overall, all 135 patients
  mean [DRV]plasma (geometric mean trough concentration): 1805 ng/mL
[3]; person, CYP3A5 expressor, DRV/r and ETR, detectable viral load
  [DRV]plasma of a single patient: 652 ng/mL
[3]; subgroup DRV/r 600/100mg BID plus ETR n = 13, CYP3A5 expressors n = 5
  DRV plasma concentration (geometric mean): • 1486ng/ml • (CI95%:725–3044) • n = 5
[3]; subgroup DRV/r 600/100mg BID plus ETR n = 13, CYP3A5 non-expressors n = 8
  DRV plasma concentration (geometric mean): • 3141ng/ml • (CI95%: 2042–4831) • n = 8
[3]; subgroup DRV/r 600/100mg BID, CYP3A5 expressors n = 19
  DRV plasma concentration (geometric mean): • 2411 • (CI95%: 1895–3067) • n = 19 ng/ml
[3]; subgroup DRV/r 600/100mg BID, CYP3A5 non-expressors n = 23
  DRV plasma concentration (geometric mean): • 2430 • (CI95%: 1817–3249) • n = 23 ng/ml
[3]; subgroup DRV/r 800/100mg QD, CYP3A5 expressors n = 41
  DRV plasma concentration (geometric mean): • 1693ng/ml • (CI95%:1314–2182) • n = 41
[3]; subgroup DRV/r 800/100mg QD, CYP3A5 non-expressors n = 52
  DRV plasma concentration (geometric mean): • 1498ng/ml • (CI95%: 1227–1828) • n = 52

## Cc1cc(C#N)cc(C)c1Oc1nc(Nc2ccc(C#N)cc2)nc(N)c1Br [ETR, Etravirine]
[2]; DRV/r with ETR 100mg twice daily compared to ETR alone
  decrease of ETR exposure: 37%
[4]
  virological efficacy, immunological recovery and clinical progression versus placebo: superiority
